Where two headings read alike, the source gives them in different places.
What was measured:
[1] = system: dendritic cells; test: Expression of cell surface molecules (CD1a, CD86, ICAM-1, CD83) on DC matured in presence of PDE4 inhibitors, flow cytometry; type: cell-based, human
Text: Dendritic cells were matured for 2 days with LPS in the presence or absence of the PDE4 inhibitors Ariflo or Rolipram and analysed for the expression of cell surface molecules by flow cytometry. In the left corner of each figure the mean fluorescence intensity (Mn).
Dendritic cells were matured for 2 days with the maturation factors TNF-α plus IL-1β (referred to as MF) in the presence or absence of the PDE4 inhibitors Ariflo and Rolipram and analysed for the expression of cell surface molecules by flow cytometry. In the left corner of each figure the mean fluorescence intensity (Mn).
At day 6, the maturation of CD1a^+ DC was induced by a 2-day exposure to either LPS (250 ng/ml; Difco, Detroit, Mich.) or a combination of the cytokines rhIL-1β (10 ng/ml), and TNF-α (25 ng/ml) both obtained from Pharma Biotechnologie, Hannover, Germany. Maturation was induced in the absence or presence of PDE4 inhibitors (10 μM, unless stated otherwise) or PGE2 (10^−6 M; Sigma, St. Louis,Mass.). Where indicated, DC were kept in non-maturing conditions during 2 days.
The mouse mAbs against the following human molecules were used: CD1a (OKT6; Ortho Diagnostic System, Beerse, Belgium), ICAM-1, CD86 (Pharmingen, San Diego, Calif.), CD83 (HB15a, IgG2b; Immunotech, Marseille, France), followed by FITC-conjugated goat anti-mouse mAb (Jackson Immunoresearch Laboratories, West Grove, Pa.).
The maturation process of DC is associated with the appearance of CD83 and upregulation of co-stimulatory molecules like CD86. The study whether the presence of PDE4 inhibitors during DC maturation could affect the cell surface expression of the DC-associated marker CD1a, the co-stimulatory molecules CD86 and ICAM-1, and the DC maturation marker CD83, therefore the study of the expression of these markers after treatment has been performed.

[2] = system: immature DC; test: CD40-induced IL-12 production by immature DC stimulated with J558-CD40L cells; type: cell-based, human; conditions: 10 μM inhibitor, J558-CD40L stimulation, 24 h supernatant
Experimental: FIG. 2 illustrates the inhibitory effect of PDE4 inhibitors on CD40-induced IL12 production by immature DC. DC (2×10^4 cells/well) were stimulated with J558-CD40L cells in the presence of 10 μM of the indicated PDE4 inhibitors (Ariflo, Rolipram, Diazepino-indole or Pirazolo [4,3-e] diazepine). Results are expressed as the cytokine production in pg/ml of 24 h supernatant of cell cultures. The data shown are from one representative experiment out of three giving similar results. Venous blood from healthy donors is collected by venipuncture in sodium-heparin containing tubes ([…], Terumo Europe, Leuven, Belgium). Peripheral blood mononuclear cells (PBMC) are isolated by density centrifugation on Lymphoprep (Nycomed, Torshov, Norway). Subsequently, PBMC are centrifuged on a Percoll (Pharmacia, Uppsala, Sweden) gradient consisting of three density layers (1.076, 1.059 and 1.045 g/ml). The light density fraction floating on the middle layer, which contained predominantly monocytes, is seeded in 24-well culture plates (Costar, Cambridge, Mass.) at a density of 5×10^5 cells/well. […]

[3] = system: Naive Th cells (ThN); test: Naive T cell differentiation (Th1/Th2) after co-culture with DC matured in presence of PDE4 inhibitors, intracellular IFN-γ/IL-4 staining; type: cell-based, human; conditions: DC matured with MF plus 10 μM inhibitor
[4] = system: immature DC; test: LPS plus IFN-γ-induced cytokine production by immature DC; type: cell-based, human; conditions: immature DC stimulated with LPS and IFN-γ, 24 h supernatants; for IL-12p70 production / TNF-α production: vs DMSO-treated DC
Experimental: FIG. 1 illustrates the inhibitory effect of PDE 4 inhibitors on LPS plus IFN-γ-induced cytokine production by immature DC. DC (2×10^4 cells/well) were stimulated with LPS and IFN-γ combined with the indicated concentrations of PDE4 inhibitors (Ariflo or Rolipram). Results are expressed as the mean cytokine production in ng/ml of duplicate cultures (24h supernatants). A: IL-12p70; B: TNF-α; C: IL-6. Cytokine production is expressed as ng/ml.
Venous blood from healthy donors is collected by venipuncture in sodium-heparin containing tubes (VT100H; Venoject, Terumo Europe, Leuven, Belgium). Peripheral blood mononuclear cells (PBMC) are isolated by density centrifugation on Lymphoprep (Nycomed, Torshov, Norway). Subsequently, PBMC are centrifuged on a Percoll (Pharmacia, Uppsala, Sweden) gradient consisting of three density layers (1.076, 1.059 and 1.045 g/ml). The light density fraction floating on the middle layer, which contained predominantly monocytes, is seeded in 24-well culture plates (Costar, Cambridge, Mass.) at a density of 5×10^5 cells/well. After 30 min of incubation at 37° C., nonadherent cells are removed; adherent cells are cultured in Iscove's modified Dulbecco's medium (Life Technologies, Paisley, U.K.) containing gentamycin (86 μg/ml; Duchefa, Haarlem, The Netherlands) and 1% FCS (Hyclone, Logan, Utah.) and supplemented with GM-CSF (500 U/ml) and IL-4 (250 U/ml) to obtain DC. At day 3, the media, including the supplements, are refreshed. At day 6, immature CD1a^+CD14^− DC are obtained.
Measurements of IL-12p70 levels in culture supernatants were performed by a specific solid-phase sandwich ELISA OptEI™ human IL-12P70 (Pharmingen San Diego, Calif.). Measurements of IL-6 and TNF-α were performed by ELISA using pairs of specific mAbs and recombinant cytokine standards obtained from BioSource International (Camarillo, Calif.). The limits of detection of these ELISA are as follows: IL-6, 20 pg/ml; IL-12p70, 3 pg/ml; and TNF-α, 20 pg/ml.
In contrast, the production of IL-6 by the immature DC was not affected by any of the inhibitors.

[5] = system: dendritic cells; conditions: cited from earlier work
[6] = DC matured 2 days with TNF-α plus IL-1β (MF)

| Compound | expression of cell surface molecules (phenotype of mature DC) ([1]; DC matured 2 days with LPS) | expression of cell surface molecules (phenotype of mature DC) [1, 6] | IL-12 production [2] | IFN-γ (%) positive cells ([3]; Experiment 1) [%] | IL-4 positive cells (%) ([3]; Experiment 1) | IFN-γ (%) positive cells ([3]; Experiment 2) [%] | IL-4 (%) positive cells ([3]; Experiment 2) [%] | IFN-g (%) positive cells ([3]; Experiment 3) [%] | IL-4 (%) positive cells ([3]; Experiment 3) [%] | IL-6 production [4] | IL-12p70 production [4] | TNF-α production [4] | IL-12 production by dendritic cells ([5]; shown in the art) | IL-12 production by dendritic cells [5] |
| --- | --- | --- | --- | --- | --- | --- | --- | --- | --- | --- | --- | --- | --- | --- |
| COc1ccc([C@]2(C#N)CC[C@@H](C(=O)O)CC2)cc1OC1CCCC1 [Ariflo] | absence of phenotypic effect | absence of phenotypic effect | able to inhibit IL-12 production | 4.7 | 15.1 | 29.6 | 2.0 | 24.0 | 6.2 | not affected | reduced ability to produce | reduced ability to produce |  |  |
| COc1ccc(C2CNC(=O)C2)cc1OC1CCCC1 (stereo not drawn) [Rolipram] | absence of phenotypic effect | absence of phenotypic effect | able to inhibit IL-12 production | 7.2 | 13.5 | 35.4 | 1.1 | 24.5 | 5.7 | not affected | reduced ability to produce | reduced ability to produce |  |  |
| CCCCC[C@H](O)/C=C/[C@H]1[C@H](O)CC(=O)[C@@H]1C/C=C\CCCC(=O)O [prostaglandin E2] |  |  |  |  |  |  |  |  |  |  |  |  | inhibit IL-12 production |  |
| CC(C)(C)NCC(O)c1ccc(O)c(CO)c1 (stereo not drawn) [salbutamol] |  |  |  |  |  |  |  |  |  |  |  |  | inhibit IL-12 production |  |
| cholera toxin |  |  |  |  |  |  |  |  |  |  |  |  |  | inhibit IL-12 production |
